In paper PMC9322314 (2022):

How the values were obtained:
[1] = test system: FdxT (DNA, hairpin, hexaethyleneglycol (HEG) loop between 9 and 10) TATAGCTATATAGCTATA; assay: FRET melting; settings: 10 mM K+, 90 mM Li+; 10 mM Li cacodylate pH 7.2, 0.2 μM DNA, 2 μM compound
[2] = test system: 22AG (32P-labelled) (DNA, G4) AGGGTTAGGGTTAGGGTTAGGG; assay: photoalkylation (365 nm), denaturing PAGE; settings: 100 mM K+; covalent; 10 mM Li cacodylate pH 7.2, 10 μM DNA, 20 μM compound
[3] = test system: 22AG (DNA, G4) AGGGTTAGGGTTAGGGTTAGGG; assay: CD titration, Hill fit; settings: 10 mM Li cacodylate pH 7.2, 3 μM DNA
[4] = test system: Pu24T (32P-labelled) (DNA, G4) TGAGGGTGGTGAGGGTGGGGAAGG; assay: photoalkylation (365 nm), denaturing PAGE; settings: 100 mM K+; covalent; 10 mM Li cacodylate pH 7.2, 10 μM DNA, 20 μM compound
[5] = test system: F(21CTA)T (DNA, G4) GGGCTAGGGCTAGGGCTAGGG; assay: FRET melting; settings: 10 mM K+, 90 mM Li+; 10 mM Li cacodylate pH 7.2, 0.2 μM DNA, 2 μM compound
[6] = test system: F(c-Myc)T (DNA, G4) TTGAGGGTGGGTAGGGTGGGTAA; assay: FRET melting; settings: 1 mM K+, 99 mM Li+; 10 mM Li cacodylate pH 7.2, 0.2 μM DNA, 2 μM compound
[7] = test system: F(c-Kit2)T (DNA, G4) GGGCGGGCGCGAGGGAGGGG; assay: FRET melting; settings: 1 mM K+, 99 mM Li+; 10 mM Li cacodylate pH 7.2, 0.2 μM DNA, 2 μM compound
[8] = test system: F(Pu24T)T (DNA, G4) TGAGGGTGGTGAGGGTGGGGAAGG; assay: FRET melting; settings: 1 mM K+, 99 mM Li+; 10 mM Li cacodylate pH 7.2, 0.2 μM DNA, 20 μM compound
[9] = test system: F(CEB25wt)T (DNA, G4) AAGGGTGGGTGTAAGTGTGGGTGGGT; assay: FRET melting; settings: 1 mM K+, 99 mM Li+; 10 mM Li cacodylate pH 7.2, 0.2 μM DNA, 2 μM compound
[10] = test system: F21T (DNA, G4) GGGTTAGGGTTAGGGTTAGGG; assay: FRET melting; settings: 10 mM K+, 90 mM Li+; 10 mM Li cacodylate pH 7.2, 0.2 μM DNA, 20 μM compound

Row | binding [1] | binding [2] | binding ([3]; 100 mM K+) | binding ([3]; 100 mM Na+) | binding [4] | binding [5] | binding [6] | binding [7] | ΔT 1/2 [8] [°C] | binding [9] | ΔT 1/2 [10] [°C] | Structure (SMILES)
1 | no | yes | yes | yes | yes | – | – | – | – | – | – | CN(C)Cc1cc(C#Cc2cccc(C#Cc3ccc(O)c(CN(C)C)c3)c2)ccc1O
2 | no | – | yes | yes | – | – | – | – | – | – | – | CN(C)Cc1ccc(C#Cc2cccc(C#Cc3ccc(CN(C)C)c(O)c3)c2)cc1O

Continued, compound first:

Row | Structure (SMILES) | binding [1] | binding [2] | binding ([3]; 100 mM K+) | binding ([3]; 100 mM Na+) | binding [4] | binding [5] | binding [6] | binding [7] | ΔT 1/2 [8] [°C] | binding [9] | ΔT 1/2 [10] [°C]
3 | CN(C)Cc1cc2cc(C#Cc3cccc(C#Cc4ccc5cc(O)c(CN(C)C)cc5c4)c3)ccc2cc1O | no | – | yes | – | – | – | – | – | – | – | –
4 | C[N+](C)(C)Cc1cc(C#Cc2cccc(C#Cc3ccc(O)c(C[N+](C)(C)C)c3)c2)ccc1O | no | yes | yes | yes | yes | – | – | – | – | – | –
5 | C[N+](C)(C)Cc1cc2cc(C#Cc3cccc(C#Cc4ccc5cc(O)c(C[N+](C)(C)C)cc5c4)c3)ccc2cc1O | no | – | yes | yes | – | weak | yes | weak | 29.0 | weak | 33.3
6 | C[N+](C)(C)Cc1ccc(C#Cc2cccc(C#Cc3ccc(C[N+](C)(C)C)c(O)c3)c2)cc1O | no | yes | yes | yes | yes | – | – | – | – | – | –
